# Laboratory results taken from patent US7432376B2, “Tropane prodrugs with central nervous system activity” (Research Foundation of State University of New York, The, priority 2006, dated 2008).
# Like-named read-outs stand apart in the source and are kept apart here.
# Key:
# [1] = target: T1, dopamine transport sites (DAT) (Rattus norvegicus, UniProt P23977); assay: Displacement of [125I]RTI-55 binding at dopamine transport sites in membranes from rat striatum; design: species or system Sprague-Dawley rat
# T1 construct: tissue Pel-Freez, Rogers, Ark; host or cells: rat striatum membranes
# Procedure: (§1) Binding of at biogenic amine transporters was determined using striatum and frontal cortex dissected from frozen Sprague-Dawley rat brains (Pel-Freez, Rogers, Ark.). […] Affinities of analogs at 5-HT transport sites were determined by displacement of [^3H]paroxetine binding in membranes from rat frontal cortex, using 50 mg (original wet weight) of membranes and 0.4 nM [^3H]paroxetine. Non-specific binding was determined in the presence of 10 μM fluoxetine. Binding of analogs at norepinephrine transport sites was determined by displacement of [^3H]nisoxetine binding in membranes from rat forebrain, using 0.7 nM [^3H]nisoxetine. Non-specific binding was determined in the presence of 1 μM desipramine.
# (§2) Potencies were calculated from displacement curves using 7-10 concentrations of unlabeled analogs, as analyzed by non-linear curve fitting. […] For [^3H]paroxetine and [^3H]nisoxetine binding assays, Ki values were calculated using the Cheng-Prusoff equation.^1 All data are mean values±S.E.M. of at least three separate experiments, each of which was conducted in triplicate.
# [2] = target: T2, 5-HT transport sites (SERT) (Rattus norvegicus, UniProt P31652); assay: Displacement of [3H]paroxetine binding at 5-HT transport sites in membranes from rat frontal cortex; design: species or system Sprague-Dawley rat
# T2 construct: tissue Pel-Freez, Rogers, Ark; host or cells: rat frontal cortex membranes
# Procedure: as §1, §2
# T2 sequence (P31652 whole entry): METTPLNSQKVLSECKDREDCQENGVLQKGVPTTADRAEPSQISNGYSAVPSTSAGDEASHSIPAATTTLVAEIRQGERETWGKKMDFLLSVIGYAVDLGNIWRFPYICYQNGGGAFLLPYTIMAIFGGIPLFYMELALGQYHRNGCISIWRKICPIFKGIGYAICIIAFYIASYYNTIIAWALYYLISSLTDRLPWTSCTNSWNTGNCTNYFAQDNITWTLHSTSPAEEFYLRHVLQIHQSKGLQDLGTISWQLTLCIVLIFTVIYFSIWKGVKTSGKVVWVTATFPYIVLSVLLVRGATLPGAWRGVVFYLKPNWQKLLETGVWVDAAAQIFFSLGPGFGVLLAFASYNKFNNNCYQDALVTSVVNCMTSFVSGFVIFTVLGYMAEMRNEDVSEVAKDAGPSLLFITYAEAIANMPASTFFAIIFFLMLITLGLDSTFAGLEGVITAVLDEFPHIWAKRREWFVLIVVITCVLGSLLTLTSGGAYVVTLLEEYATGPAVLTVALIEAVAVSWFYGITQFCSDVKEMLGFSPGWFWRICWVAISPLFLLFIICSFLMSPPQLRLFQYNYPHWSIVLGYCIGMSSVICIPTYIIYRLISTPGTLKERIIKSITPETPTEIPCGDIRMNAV
# T1 sequence (P23977 whole entry): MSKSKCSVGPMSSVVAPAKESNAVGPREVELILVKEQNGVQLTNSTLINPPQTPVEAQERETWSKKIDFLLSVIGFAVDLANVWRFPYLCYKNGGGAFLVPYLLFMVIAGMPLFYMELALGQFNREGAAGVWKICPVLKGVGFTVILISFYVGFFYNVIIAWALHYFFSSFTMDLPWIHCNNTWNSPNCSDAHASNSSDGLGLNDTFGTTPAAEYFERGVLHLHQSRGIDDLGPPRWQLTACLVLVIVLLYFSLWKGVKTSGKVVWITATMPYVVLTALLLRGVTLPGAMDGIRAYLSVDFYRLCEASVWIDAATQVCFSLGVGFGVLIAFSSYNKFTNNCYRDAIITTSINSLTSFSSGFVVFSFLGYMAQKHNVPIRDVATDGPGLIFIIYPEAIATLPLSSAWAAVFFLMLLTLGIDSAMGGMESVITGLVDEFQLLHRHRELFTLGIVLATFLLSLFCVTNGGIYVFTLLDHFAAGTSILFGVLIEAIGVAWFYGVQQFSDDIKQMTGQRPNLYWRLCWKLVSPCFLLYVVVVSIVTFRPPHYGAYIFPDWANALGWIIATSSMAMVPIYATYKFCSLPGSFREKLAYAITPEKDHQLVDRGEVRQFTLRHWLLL
SMILES,IC50 [1],Ki [2],"IC50 ([1]; rat striatum membranes, 10 pM [125I]RTI-55, mean of at least three experiments, read-out: IC50 DA)","Ki ([2]; rat frontal cortex membranes, 0.4 nM [3H]paroxetine, Ki by Cheng-Prusoff, mean of at least three experiments, read-out: Ki SERT)"
CCC(O)C1C(c2ccc(C)cc2)CC2CCC1N2C (stereo not drawn) [Compound 41a],3.69 nM,161 nM,,
CCC(O)C1C(c2ccc3ccccc3c2)CC2CCC1N2C (stereo not drawn) [Compound 41b],6.22 nM,588 nM,,
CCC(OC(C)=O)C1C(c2ccc(C)cc2)CC2CCC1N2C (stereo not drawn) [Compound 42a],87.9 nM,> 10000 nM,,
CCC(OC(C)=O)C1C(c2ccc3ccccc3c2)CC2CCC1N2C (stereo not drawn) [Compound 42b],1.72 nM,1.06 nM,,
CCCCCCCCCCCC(=O)OC(CC)C1C(c2ccc(C)cc2)CC2CCC1N2C (stereo not drawn) [Compound 43a],,,0.891 nM,1.91 nM
CCCCCCCCCCCC(=O)OC(CC)C1C(c2ccc3ccccc3c2)CC2CCC1N2C (stereo not drawn) [Compound 43b],109 nM,90.8 nM,,
